According to patent US20240197700A1, “Methods and Compositions for Treating Lysosomal Storage Disorders” (Sanford Health, priority 2021, published 2024):
Entries after “also recorded” stand apart in the source; their conditions may differ.

Legend:
Format in all cases: in vivo, mouse
Cln2^R207X mice [1] = test: Microglial activation (CD68) in brain of Cln2^R207X mice
Protocol: (§1) Specific experimental details are included in figure legends. In general, after collection and preparation, MEFs and PNCs were dosed with vehicle or AF38469 (40 nM, 400 nM. or 4 μM) on DIV3 and DIV5. On DIV7, cells were treated with the following dyes: Hoechst 33342 (1:1000 dilution), LysoTrackerT™ Red DND-99 (1:10,000 dilution), fixed, and imaged. Mice were given vehicle or AF38469 (78.125 μg/ml, 3.125 μg/ml, 0.3125 μg/ml or 0.03125 μg/ml equating approximately to 250 μg/mouse/day, 10 μg/mouse/day, 1 μg/mouse/day, and […], respectively, given a mouse's daily water intake of approximately 3.2 ml per day) in drinking water beginning at wean. Body weight was measured bi-weekly, and a force actimeter test was performed on Cln2^R207X mice at 10 weeks of age. Body weight was measured every month for Cln3^Δex7/8 mice. At 11 and 16 weeks of age, respectively, Cln2^R207X and Cln3^Δex7/8 mice along with age matched wild type control mice were CO2 euthanized and intracardially perfused with PBS. Brains were collected and placed on a 1 mm sagittal brain block. Brains were sliced at the midline and 3 mm right of the midline. One hemisphere was fixed in 4% PFA and sectioned at 50 microns on a vibratome. Immunohistochemistry was performed on free-floating sections. For mitochondrial ATP synthase subunit C (SubC), glial fibrillary acidic protein (GFAP), and cluster of differentiation 68 (CD68) immunolabeling, primary antibodies included anti-SubC (Abcam, ab181243; 1:1000), anti-GFAP (Dako, Z0334; 1:5000), anti-CD68 (AbD Serotec, MCA1957; 1:2000), and secondary antibodies included anti-rabbit biotinylated (Vector Labs, BA-1000 1:1000) and anti-rat (Vector Labs, BA-9400 1:1000). Coverslips were mounted on slides using antifade-mounting media and were stored in the dark before imaging. Sections were imaged and analyzed using an Aperio Digital Pathology Slide Scanner (AT2) and associated software. Images were extracted from S1BF of the somatosensory cortex and the VPM/VPL of the thalamus, with multiple images taken of multiple tissues from each animal.
Short-term chronic treatment with AF38469 impacts glial activation in Cln2^R207X mice. Beginning at wean, wild type and Cln2^R207X mice were treated with vehicle (0.2408% DMSO) or AF38469 (0.03125 μg/ml, 0.3125 μg/ml, 3.125 μg/ml, 78.125 μg/ml) continuously through the drinking water continuing until sacrifice at 11 weeks. […] Sections were imaged and analyzed using an Aperio Digital Pathology Slide Scanner (AT2) and associated software. […] Percent area of immunoreactivity were quantified using a threshold analysis in ImageJ™. […]

Cln2^R207X mice [2] = test: Astroglial activation (GFAP) in brain of Cln2^R207X mice
Protocol: as §1
Short-term chronic treatment with AF38469 impacts glial activation in Cln2^R207X mice. Beginning at wean, wild type and Cln2^R207X mice were treated with vehicle (0.2408% DMSO) or AF38469 (0.03125 μg/ml, 0.3125 μg/ml, 3.125 μg/ml, 78.125 μg/ml) continuously through the drinking water continuing until sacrifice at 11 weeks. Upon sacrifice, one hemisphere of brain was sectioned at 50 microns on a vibratome; DAB staining immunohistochemistry was then performed using anti-GFAP (Dako, Z0334; 1:5000), anti-CD68 (AbD Serotec, MCA1957; 1:2000), anti-rabbit biotinylated (Vector Labs, BA-1000 1:1000), and anti-rat (Vector Labs, BA-9400 1:1000). Sections were imaged and analyzed using an Aperio Digital Pathology Slide Scanner (AT2) and associated software. Images were extracted from S1BF of the somatosensory cortex and the VPM/VPL of the thalamus. Percent area of immunoreactivity were quantified using a threshold analysis in ImageJ™. Statistical analyses were performed using GraphPad Prism™ (v8.4.3; San Diego, CA). […] Increasing concentrations of AF38469 and corresponding genotypes are shown along the x-axis. Nested one-way ANOVA. Mean±S.E.M. Dunnett's multiple comparisons test compared to the mutant vehicle treated group. *p<0.05, **p<0.01, ***p<0.001, ****p<0.0001. Reactive gliosis including activated microglia and reactive astrocytes is one of the histopathologies associated with neurodegenerative diseases such as NCLs.

Cln2^R207X mice [3] = test: Tremor index score on force plate actimeter in Cln2^R207X mice; details: for tremor index score: 10 weeks of age
Protocol: as §1
Short-term chronic treatment with AF38469 reduced tremor phenotype in Cln2^R207X mice. Beginning at wean, wild type and Cln2^R207X mice were treated with vehicle (0.2408% DMSO) or AF38469 (0.03125 μg/ml, 0.3125 μg/ml, 3.125 μg/ml, 78.125 μg/ml) continuously through the drinking water. At 10 weeks of age, wild type and Cln2^R207X mice were evaluated on the force plate actimeter. Evaluation of tremors with the force plate actimeter software produces a tremor index score based on the tremor frequency 5-10 Hz (A), 10-15 Hz (B), 15-20 Hz (C) and 20-25 Hz (D). Data was analyzed with Graphpad. Two-way ANOVA. Mean±S.E.M. Dunnett's multiple comparisons test. *p<0.05, **p<0.01, ***p<0.001, ****p<0.0001. […]

[4] = higher doses, summary statement

SMILES: Cc1cccc(NC(=O)c2ccc(C(F)(F)F)cc2C(=O)O)n1 [AF38469, 2-((6-methylpyridin-2-yl)carbamoyl)-5-(trifluoromethyl)benzoic acid]
- microglial activation (CD68) (Cln2^R207X mice [1]; 3.125 μg/ml, 78.125 μg/ml, somatosensory cortex): did not significantly impact
- microglial activation (CD68) (Cln2^R207X mice [1]; 78.125 μg/ml, VPM/VPL of the thalamus): significantly increased
- CD68 reactivity (Cln2^R207X mice [1]; [4]): increased or had no impact
- microglial activation (CD68) (Cln2^R207X mice [1]; lower doses 0.03125 μg/ml, 0.3125 μg/ml, somatosensory cortex): significantly and potently decreased
- astroglial activation (GFAP) (Cln2^R207X mice [2]; 3.125 μg/ml, 78.125 μg/ml, VPM/VPL of the thalamus): did not impact
- astroglial activation (GFAP) (Cln2^R207X mice [2]; 3.125 μg/ml, somatosensory cortex): significantly increased
- astroglial activation (GFAP) (Cln2^R207X mice [2]; 78.125 μg/ml, somatosensory cortex): had no impact
- GFAP reactivity (Cln2^R207X mice [2]; [4]): increased or had no impact
- astroglial activation (GFAP) (Cln2^R207X mice [2]; lower doses 0.03125 μg/ml, 0.3125 μg/ml): had no significant impact; also recorded: did not significantly impact
- tremor index score (Cln2^R207X mice [3]; 5-10 Hz, vs vehicle Cln2^R207X): had no impact
- tremor index score (Cln2^R207X mice [3]; 10-15 Hz, 0.3125 μg/ml): significantly reduced
- tremor index score (Cln2^R207X mice [3]; 15-20 Hz and 20-25 Hz, 0.03125 μg/ml, 0.3125 μg/ml, 3.125 μg/ml): significantly reduced
- tremor index scores (Cln2^R207X mice [3]; lower concentrations, summary statement): significantly reduce
